± gives the expanded uncertainty stated by the source.
Settings: Liquid, Buoyancy - hydrostatic balance with magnetic suspension - one sinker

`CCCCCCCCCCCCCC` [tetradecane] showed a mass density (313.13 K, 16040 kPa) of 760.35 ± 0.24 kg/m3, a mass density (313.15 K, 14050 kPa) of 759.03 ± 0.24 kg/m3 and a mass density (313.15 K, 18060 kPa) of 761.65 ± 0.24 kg/m3. It also gave a mass density (313.17 K, 19040 kPa) of 762.28 ± 0.24 kg/m3, a mass density (313.19 K, 10020 kPa) of 756.25 ± 0.24 kg/m3 and a mass density (313.23 K, 12040 kPa) of 757.62 ± 0.24 kg/m3. It also gave a mass density (323.14 K, 14050 kPa) of 752.38 ± 0.24 kg/m3, a mass density (323.18 K, 12040 kPa) of 750.93 ± 0.24 kg/m3 and a mass density (323.18 K, 16070 kPa) of 753.74 ± 0.24 kg/m3. It also gave a mass density (323.23 K, 18060 kPa) of 755.07 ± 0.24 kg/m3, a mass density (323.25 K, 19080 kPa) of 755.76 ± 0.24 kg/m3 and a mass density (323.26 K, 10000 kPa) of 749.44 ± 0.24 kg/m3. The mass density (333.13 K, 18050 kPa) was 748.61 ± 0.24 kg/m3, the mass density (333.13 K, 19060 kPa) was 749.31 ± 0.24 kg/m3 and the mass density (333.14 K, 10050 kPa) was 742.64 ± 0.23 kg/m3. The mass density (333.16 K, 12040 kPa) was 744.14 ± 0.24 kg/m3, the mass density (333.16 K, 16060 kPa) was 747.18 ± 0.24 kg/m3 and the mass density (333.28 K, 14060 kPa) was 745.66 ± 0.24 kg/m3. For the same molecule, the mass density (343.31 K, 16030 kPa) was 740.68 ± 0.23 kg/m3, the mass density (343.31 K, 19040 kPa) was 742.92 ± 0.23 kg/m3 and the mass density (343.32 K, 10040 kPa) was 736 ± 0.23 kg/m3. The mass density (343.32 K, 12050 kPa) was 737.59 ± 0.23 kg/m3, the mass density (343.34 K, 18020 kPa) was 742.16 ± 0.23 kg/m3 and the mass density (343.35 K, 14070 kPa) was 739.16 ± 0.23 kg/m3. The mass density (353.48 K, 16030 kPa) was 734.17 ± 0.23 kg/m3, the mass density (353.5 K, 18010 kPa) was 735.7 ± 0.23 kg/m3 and the mass density (353.51 K, 19050 kPa) was 736.41 ± 0.23 kg/m3. It also gave a mass density (353.58 K, 12050 kPa) of 730.83 ± 0.23 kg/m3, a mass density (353.63 K, 10020 kPa) of 729.05 ± 0.23 kg/m3 and a mass density (353.66 K, 14040 kPa) of 732.42 ± 0.23 kg/m3.

Source: the NIST ThermoML archive (doi:10.1021/acs.jced.5b00049)
